Entries after “also recorded” stand apart in the source; their conditions may differ. Where two headings read alike, the source gives them in different places.

The test system of test [1] is heparin binding proteins. The following applies: cited from earlier work.
The subject of test [2] is bFGF. The following applies: cited from earlier work.
Test [3] deals with FGFR2 (bek). Briefly: Tyrosine phosphorylation of FGFR2 in wild-type CHO-K1 cells. The following applies: excess of sucrose octasulfate (0.5, 50 or 500 μM) with aFGF and heparin. It is filed as cell-based, human. The protocol: (§1) Cells were lysed and the receptor was immunoprecipitated with anti-FGFR2 antibodies. Samples were then analyzed by SDS-PAGE, transferred to nitrocellulose membranes, and tyrosine-phosphorylated proteins were detected by immunoblotting with anti-phosphotyrosine antibodies.
(§2) Wild-type CHO cells (CHO-K1), as well as heparin sulfate-deficient mutant cells (CHO-pgsD-677) which were kindly provided by Prof. J. Esko (Esko, 1991), were cultured in F-12 medium containing 7.5% FBS, 1% Ampicillin/Streptomycin and 1% glutamine. Both CHO cell lines were co-transfected with the wild-type human FGFR2 (bek) DNA in the expression vector pMJ30 (Dionne et al., 1990) (40 μg/10 cm dish) and the pSVneo resistant gene (0.5 mg/10 cm dish), using the calcium phosphate method (Chen and Okayama, 1987). Geneticin (1 mg/ml) resistant clones were screened for expression of the receptor by immunoprecipitation and immunoblotting analysis using anti-FGFR2 antibodies.
(§3) Wild-type and mutant CHO cells were starved overnight in F-12 medium containing 0.5% FBS, and stimulated with either 0.1 nM aFGF, 50 nM heparin, or both, for 5 min at 37° C. Cells were lysed, immunoprecipitated with anti-FGFR2 antibodies and analyzed by immunoblotting with anti-phosphotyrosine (anti-PTyr) antibodies.

Test [4] has as its target T1, aFGF (Homo sapiens, UniProt P05230).
T1 construct: made in house; host or cells: E. coli
In words: Isothermal titration calorimetry, binding to aFGF. The following applies: ITC. (In ITC the heat of successive injections is recorded.)

Test [5] deals with FGFR2 (bek). In words: Tyrosine phosphorylation of FGFR2 in mutant (HSPG-deficient) CHO-pgsD-677 cells. It is filed as cell-based, human. The protocol: as §1, §2, §3
The subject of test [6] is tumor cells. The following applies: Wellstein et al, 1991; cited from earlier work.
Test [7] has as its system K-FGF. The note with it: cited from earlier work.
For test [8], the system named is gastric mucosa. The following applies: cited from earlier work.
Test [9] relates to EGF. The note with it: cited from earlier work.
Test [10] relates to VEGF. The following applies: cell culture; Kendall & Thomas, 1993; cited from earlier work.

T1 sequence (P05230 whole entry): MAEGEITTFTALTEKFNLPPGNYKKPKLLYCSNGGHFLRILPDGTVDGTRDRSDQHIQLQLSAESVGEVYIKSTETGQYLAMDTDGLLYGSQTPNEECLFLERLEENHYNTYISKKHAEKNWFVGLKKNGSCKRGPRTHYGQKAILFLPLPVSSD

Take `Cc1ccc(C(=O)Nc2ccc(S(=O)(=O)O)c3cc(S(=O)(=O)O)cc(S(=O)(=O)O)c23)cc1NC(=O)c1cccc(NC(=O)Nc2cccc(C(=O)Nc3cc(C(=O)Nc4ccc(S(=O)(=O)O)c5cc(S(=O)(=O)O)cc(S(=O)(=O)O)c45)ccc3C)c2)c1` [Suramin]: in [1], the “effect on heparin binding proteins” value is reported as “inducing microagglutination of the growth factor; also recorded: inhibit a variety of heparin binding proteins”.
Regarding `O=S(=O)(O)OC[C@H]1O[C@@](COS(=O)(=O)O)(O[C@H]2O[C@H](COS(=O)(=O)O)[C@@H](OS(=O)(=O)O)[C@H](OS(=O)(=O)O)[C@H]2OS(=O)(=O)O)[C@@H](OS(=O)(=O)O)[C@@H]1OS(=O)(=O)O` [sucrose octasulfate], in test [2], the “protection of bFGF from acid degradation” value is given as “protect the biologic activity of bFGF against acid degradation”. In addition, the “effect on aFGF/heparin-induced receptor activation, CHO cells that express HSPG” value in test [3] was “inhibitory”. In addition, the “AH of aFGF binding to heparin / heparin analog” value in test [4] (heparins: means ± SD of two experiments) is recorded as -5.8 ± 1.2 kcal mol^-1. Moreover, the Kd in [4] (single class of binding sites, heparins: means ± SD of two experiments, read-out: KD of aFGF binding to heparin / heparin analog) worked out at 3.4 ± 1.34 µM; in [4] (KD of aFGF binding to sucrose octasulfate), 3.4 µM. Moreover, the “effect on aFGF/heparin-induced receptor activation, mutant CHO cells” value in test [5] (excess of sucrose octasulfate (0.5, 50 or 500 μM) with 0.1 nM aFGF and 50 nM heparin) is “inhibitory; also recorded: can be inhibited”. Besides, in [5] (statement of Section 5.1 referring to Section 7.2.8), the “aFGF/heparin-induced dimerization and activation of FGFR” value was “effectively inhibits aFGF/heparin-induced dimerization and activation of FGFR”. In addition, the “activation of FGFR by aFGF with sucrose octasulfate in place of heparin, mutant CHO cells” value in test [5] (sucrose octasulfate plus aFGF, no heparin) is recorded as “does not enable aFGF to activate FGFR in the mutant (HSPG-deficient) CHO cells”.
On to Pentosan polysulfate, for which, in test [6], the “growth of tumor cells in vitro” value is given as “selective inhibition of growth of tumor cells in vitro”. Further, the K-FGF-induced growth entry in test [7] (Wellstein et al., 1991) is reported as “inhibited the K-FGF- induced growth”. Further, the “FGF-induced angiogenesis and tumor growth” value in test [7] was “inhibited the FGF-induced angiogenesis and tumor growth”.
Consider “sucrose octakis (hydrogen sulfate) aluminum complex [sucralfate]”, for which the “protection of bFGF from acid degradation” value in test [2] is given as “protects bFGF from degradation by acid”. Further, in test [2] (compared with heparin), the “affinity to bFGF” value was “higher affinity binding to bFGF than heparin”. Moreover, the “ulcer healing / wound healing” value in test [8] (in vivo) is “accelerates ulcer healing without reducing gastric acid; also recorded: elevates the level of available endogenous bFGF in the ulcer bed and stimulates angiogenesis and wound healing”. The epithelial proliferation result in test [8] (through stimulation of gastric mucosal EGF and PDGF receptors) is “enhances epithelial proliferation”. For the same molecule, the EGF binding entry in [9] is reported as “binds EGF in a pH-dependent manner”.

B1: soluble Flt-1: soluble Flt-1, one of the receptors for VEGF (protein, UniProt P17948 27-758, looked up)
extracellular domain: SKLKDPELSLKGTQHIMQAGQTLHLQCRGEAAHKWSLPEMVSKESERLSITKSACGRNGKQFCSTLTLNTAQANHTGFYSCKYLAVPTSKKKETESAIYIFISDTGRPFVEMYSEIPEIIHMTEGRELVIPCRVTSPNITVTLKKFPLDTLIPDGKRIIWDSRKGFIISNATYKEIGLLTCEATVNGHLYKTNYLTHRQTNTIIDVQISTPRPVKLLRGHTLVLNCTATTPLNTRVQMTWSYPDEKNKRASVRRRIDQSNSHANIFYSVLTIDKMQNKDKGLYTCRVRSGPSFKSVNTSVHIYDKAFITVKHRKQQVLETVAGKRSYRLSMKVKAFPSPEVVWLKDGLPATEKSARYLTRGYSLIIKDVTEEDAGNYTILLSIKQSNVFKNLTATLIVNVKPQIYEKAVSSFPDPALYPLGSRQILTCTAYGIPQPTIKWFWHPCNHNHSEARCDFCSNNEESFILDADSNMGNRIESITQRMAIIEGKNKMASTLVVADSRISGIYICIASNKVGTVGRNISFYITDVPNGFHVNLEKMPTEGEDLKLSCTVNKFLYRDVTWILLRTVNNRTMHYSISKQKMAITKEHSITLNLTIMNVSLQDSGTYACRARNVYTGEEILQKKEITIRDQEAPYLLRNLSDHTVAISSSTTLDCHANGVPEPQITWFKNNHKIQQEPGIILGPGSSTLFIERVTEEDEGVYHCKATNQKGSVESSAYLTVQGTSDKSNLE
modifications: extracellular domain
notes: soluble Flt-1, one of the receptors for VEGF
B1: in test [10], the VEGF activity entry is “can bind and inhibit the activity of VEGF in cell culture”.

The values above are taken from patent publication US5783568A, “Methods for treating cancer and other cell proliferative diseases” (Sugen, Inc., priority 1994, dated 1998).
